Laboratory results as given in patent US20030068615A1, “Polypeptides that bind HIV gp120 and related nucleic acids, antibodies, compositions, and methods of use” (priority 1999, published 2003).
Read-outs that look alike come from different tables or passages of the source.

Molecular target: HIV-1LAI envelope gp120 (Human immunodeficiency virus type 1 group M subtype B, UniProt P03377)
Type: binding
Conditions: for number of radioactive decays (counts) counted: human CD4 21-mer scan, empty control 2075; for Counts per 20′ Average-background: CCR5 18-mer scan; for Relative % of Control: CCR5 (1-18) alanine variants, mean of two syntheses and binding experiments ± average deviation, wild-type = 100%
[1] = Panel C, 15-mers and 18-mers of CD4, empty control 556
[2] = STRL33 18-mer scan, background subtracted, first of two count columns
[3] = STRL33 18-mer scan, background subtracted, second of two count columns
[4] = radiolabeled HIV-1LAI gp120, background subtracted
[5] = Panel E, 9-mers and 12-mers of CD4, empty control 571
[6] = CXCR4 18-mer scan, background subtracted, empty control 0
[7] = CXCR4 18-mer scan, empty control 412
[8] = Panel B, 15-mers and 18-mers of CD4, empty control 575
[9] = Panel A, 21-mers of CD4, empty control 515 and 617
[10] = Panel D, 9-mers and 12-mers of CD4, empty control […]

VLPTWSTPVQPMALIVLGGVA
number of radioactive decays (counts) counted: 2197 counts

KKEGEQVEFSFPLAFTVE
COUNTS of radiolabeled gp120 retained [1]: 4683 counts

FLPLLTMIVCYSVIIKTL
radioactive counts recorded in twenty minutes [2]: 1270.5 counts
radioactive counts recorded in twenty minutes [3]: 1195.5 counts

FSGIFFIILLTIDRYLAV [CCR5 segment 113-]
Counts per 20′ Average-background [4]: 83 counts per 20′

TVEKLTGSG
COUNTS of radiolabeled gp120 retained [5]: 487 counts

DIVVLAFQK
COUNTS of radiolabeled gp120 retained [5]: 686 counts

ILPGIVILSCYCIIISKL [CXCR4 segment 209-226]
radioactive counts recorded in twenty minutes [6]: 192 counts
radioactive counts recorded in twenty minutes [7]: 604 counts

IVYKKEGEQVEFSFP
COUNTS of radiolabeled gp120 retained [1]: 615 counts

DQKEEVQLLVFGLTANSD
COUNTS of radiolabeled gp120 retained [8]: 3317 counts

MDYQASSPIYDINYYTSE [CCR5 (1-18) variant V5A]
Relative % of Control: 82 ± 3%

YKKEGEQVEFSFPLAFTVEKL
COUNTS of radiolabeled gp120 retained [9]: 735 counts

MDYQVSSPIADINYYTSE [CCR5 (1-18) variant Y10A]
Relative % of Control: 19 ± 6%
percentage of binding of mutant polypeptide compared to wild-type polypeptide, gp120 (CCR5 alanine mutant peptide, radiolabeled HIV-1LAI gp120): 19.2%

IDIVVLAFQKAS
COUNTS of radiolabeled gp120 retained [5]: 630 counts

QAMQVTETLGMTHCCINP [CCR5 segment 277-]
Counts per 20′ Average-background [4]: 81 counts per 20′

DQKEEVQLLVFGLTA
COUNTS of radiolabeled gp120 retained [8]: 3905 counts

DQGNFPLII
COUNTS of radiolabeled gp120 retained [10]: 662 counts

QALPQYAGSGNLTLALEAKTG [human CD4 286-306]
number of radioactive decays (counts) counted: 2364 counts

LVFGLTANS
COUNTS of radiolabeled gp120 retained [10]: 522 counts

FPLAFTVEKLTGSGELWW
COUNTS of radiolabeled gp120 retained [1]: 586 counts

TCTVLQNQKKVEFKI
COUNTS of radiolabeled gp120 retained [1]: 510 counts

NSDTHLLQG
COUNTS of radiolabeled gp120 retained [10]: 561 counts

YKKEGEQVE
COUNTS of radiolabeled gp120 retained [5]: 518 counts

QVEFSFPLA
COUNTS of radiolabeled gp120 retained [5]: 1205 counts

VEKLTGSGELWW
COUNTS of radiolabeled gp120 retained [5]: 477 counts

DQGNFPLIIKNLKIEDSD
COUNTS of radiolabeled gp120 retained [8]: 598 counts

LLTQMPFNLMKFIRSTHW
radioactive counts recorded in twenty minutes [2]: 2513.5 counts
radioactive counts recorded in twenty minutes [3]: 3154.5 counts

WIPALLLTIPDFIFANVS
radioactive counts recorded in twenty minutes [6]: 182 counts
radioactive counts recorded in twenty minutes [7]: 594 counts

KRGGHSSVSTESESSSFH [CXCR4 segment 333-350]
radioactive counts recorded in twenty minutes [6]: 167 counts
radioactive counts recorded in twenty minutes [7]: 579 counts

KIEDSDTYICEV
COUNTS of radiolabeled gp120 retained [10]: 601 counts

NRLDQAMQVTETLGMTHC [CCR5 segment 273-]
Counts per 20′ Average-background [4]: 10 counts per 20′

FGLTANSDTHLLQGQ
COUNTS of radiolabeled gp120 retained [8]: 625 counts

PQIIYGNVFNLDKLICGY
radioactive counts recorded in twenty minutes [2]: −18.5 counts
radioactive counts recorded in twenty minutes [3]: −37.5 counts

FWAVDAVANWYFGNFLCK [CXCR4 segment 93-110]
radioactive counts recorded in twenty minutes [6]: 66 counts
radioactive counts recorded in twenty minutes [7]: 478 counts

AGLLLFIGLGIFFCVRCRHRR
number of radioactive decays (counts) counted: 2099 counts

QKASSIVYK
COUNTS of radiolabeled gp120 retained [5]: 494 counts

FQHIMVGLILPGIVILSC
radioactive counts recorded in twenty minutes [6]: 170 counts
radioactive counts recorded in twenty minutes [7]: 582 counts

LVISIFYHKLQSLTDVFL [STRL33 segment 53-70]
radioactive counts recorded in twenty minutes [2]: 1620.5 counts
radioactive counts recorded in twenty minutes [3]: 1780.5 counts

LPLLVMVICYSGILKTLL [CCR5 segment 205-]
Counts per 20′ Average-background [4]: 68 counts per 20′

LLGIYTINFYTSMLILTC
radioactive counts recorded in twenty minutes [2]: 499.5 counts
radioactive counts recorded in twenty minutes [3]: 408.5 counts

KIDIVVLAFQKASSIVYKKEG
COUNTS of radiolabeled gp120 retained [9]: 1394 counts
number of radioactive decays (counts) counted: 3681 counts

ITLPFWAVDAVANWYFGN [CXCR4 segment 89-106]
radioactive counts recorded in twenty minutes [6]: 130 counts
radioactive counts recorded in twenty minutes [7]: 542 counts

KEEVQLLVFGLT
COUNTS of radiolabeled gp120 retained [10]: 1774 counts
